Laboratory results from patent publication EP0383591B1, “Use of 5-methyl-1-phenyl-2-(1H)-pyridone in the prevention of fibrotic lesions” (Yamauchi, Shitotomo, priority 1989, dated 1990).
Values joined by “and” are separate entries in the source; they are usually repeats but may differ in a detail not shown here. Equal entries are not always repeated. Marks after values point to notes of the source that are not given here.

Key:
[1] = test system: Pulmonary Interstitial Hyperplasia (Fibrosis); assay: Effect of oral 5MP2P upon pulmonary interstitial hyperplasia in dogs; type: in vivo, Beagle dogs; settings: for Hyperplasia Scores 0 (number of dogs): 0 = normal tissue; for Hyperplasia Scores 1 (number of dogs): 1 = minimal; for Hyperplasia Scores 2 (number of dogs): 2 = moderate; for Hyperplasia Scores 3 (number of dogs): 3 = severe; for Incidence of Normal Lung / Average Scores (hyperplasia): dogs; for Incidence of Normal Lung: control 0/9; for Average Scores (hyperplasia): score 0-3, control 2.11+0.31
Acute toxicity (LD50) = settings: in vivo
Source text: The acute toxicity of the ingredient in the medical composition of the present invention which exerts the anti-fibrotic activity is as shown in the table below.

[2] = test system: fibrosis (interstitial hyperplasia); assay: Histopathological examination of the lungs of rats for fibrosis after 5MP2P in the diet; type: in vivo
Method: The results of a histopathological examination of the lungs of rats for fibrosis (interstitial hyperplasia) after receiving 300 mg/kg body of 5MP2P in the diet for three months are summarized in Table 2. The individual microscopic readings of the lung are also shown in Table 2, a score schedule of 0, 1, 2 and 3 reflects the degree of fibrosis.
The data in […] reveal a statistically significant reduction in amount of fibrosis in rats receiving 5MP2P as compared to placebo control rats (Group 1). The mean score for the controls (Group 1) was 1.63 + 0.23, and for Group IV (5MP2P, 300 mg/kg body weight daily) was 0.95 + 0.23.
Student's T value was 2.43, with P less than 0.02 (highly significant statistically).

[3] = test system: Pulmonary Interstitial Hyperplasia (Fibrosis); assay: Effect of oral 5MP2P upon pulmonary interstitial hyperplasia in dogs; type: in vivo, Beagle dogs
Method: The mean score for Group I (Control) was 2.11 + 0.31, and for Group IV, which received 5MP2P, 150 mg/kg per day orally in capsules, was 0.22 + 0.15.

[4] = test system: Asbestos-Induced Pulmonary Interstitial Fibrosis; assay: Effect of oral 5MP2P upon asbestos-induced pulmonary interstitial fibrosis in hamsters; type: in vivo; design: key to Pulmonary Fibrosis Scores Light Microscope (individual animal) / Pulmonary Fibrosis Scores Electron Microscope (individual animal): 0 = normal tissue; 1 = minimal; 2 = moderate; 3 = severe
Source text: In hamsters, pulmonary fibrosis induced with crysotile asbestos was removed following oral 5MP2P (cf. Table 4).
The novel role of 5MP2P in the therapeutic repair of fibrotic lung tissue featuring removal of fibrotic lesions, and concomitant regeneration of normal lung tissue has been observed in experimental asbestosis by histopathological examination of lung tissue specimens under the light microscope, and electron microscopy (Table 4).
This was subsequently confirmed by ashing of lung specimens in a laboratory oven, and then determining the asbestos content.

[5] = 300 mg/kg in the diet for three months, 19 animals
[6] = hamsters, Group III: asbestos by inhalation for 5 days, 5MP2P 500 MG/KG/day orally in the diet for two months, beginning two months after exposure

SMILES: Cc1ccc(=O)n(-c2ccccc2)c1 [5MP2P, 5-Methyl-1-phenyl-2-(1H)-pyridone]
- Hyperplasia Scores 0 (number of dogs) ([1]; 25 MG/KG/day, 6 dogs): 1
- Hyperplasia Scores 1 (number of dogs) ([1]; 25 MG/KG/day, 6 dogs): 1
- Hyperplasia Scores 2 (number of dogs) ([1]; 25 MG/KG/day, 6 dogs): 4
- Hyperplasia Scores 3 (number of dogs) ([1]; 25 MG/KG/day, 6 dogs): 0
- Hyperplasia Scores 0 (number of dogs) ([1]; 75 MG/KG/day, 8 dogs): 2
- Hyperplasia Scores 1 (number of dogs) ([1]; 75 MG/KG/day, 8 dogs): 2
- Hyperplasia Scores 2 (number of dogs) ([1]; 75 MG/KG/day, 8 dogs): 3
- Hyperplasia Scores 3 (number of dogs) ([1]; 75 MG/KG/day, 8 dogs): 1
- Hyperplasia Scores 2 (number of dogs) ([1]; 150 MG/KG/day, 9 dogs): 0
- Hyperplasia Scores 3 (number of dogs) ([1]; 150 MG/KG/day, 9 dogs): 0
- Incidence of Normal Lung ([1]; 25 MG/KG/day oral): 1/6
- Incidence of Normal Lung ([1]; 75 MG/KG/day oral): 2/8
- Average Scores (hyperplasia) ([1]; Group II, 25 MG/KG/day oral): 1.50+0.34
- Average Scores (hyperplasia) ([1]; Group III, 75 MG/KG/day oral): 1.38+0.38
- LD50 (Acute toxicity (LD50); ip, Guinea pig): 460 ± 28 mg/kg
- LD50 (Acute toxicity (LD50); ip, Mouse): 600 ± 43 mg/kg
- LD50 (Acute toxicity (LD50); ip, Rat): 430 ± 29 mg/kg
- LD50 (Acute toxicity (LD50); iv, Cat): 40 mg/kg
- LD50 (Acute toxicity (LD50); iv, Dog): 200 mg/kg
- LD50 (Acute toxicity (LD50); iv, Monkey): 100 mg/kg
- LD50 (Acute toxicity (LD50); iv, Mouse): 285 ± 5 mg/kg
- LD50 (Acute toxicity (LD50); iv, Rabbit): 280 ± 32 mg/kg
- LD50 (Acute toxicity (LD50); po, Cat): 500 mg/kg
- LD50 (Acute toxicity (LD50); po, Dog): 300 mg/kg
- LD50 (Acute toxicity (LD50); po, Guinea pig): 810 ± 25 mg/kg
- LD50 (Acute toxicity (LD50); po, Mouse): 998 mg/kg
- LD50 (Acute toxicity (LD50); po, Rat female): 2300 mg/kg
- LD50 (Acute toxicity (LD50); po, Rat male): 1300 mg/kg
- Lung Connective Tissue Score 0, Total (number of animals) [2, 5]: 5
- Lung Connective Tissue Score 1, Total (number of animals) [2, 5]: 11
- Lung Connective Tissue Score 2, Total (number of animals) [2, 5]: 2
- Lung Connective Tissue Score 3, Total (number of animals) [2, 5]: 1
- Lung Connective Tissue Score, Mean ([2]; Group IV, 300 mg/kg body weight daily in the diet for three months, score schedule 0-3, control mean 1.63, P<0.02, 300 mg/kg): 0.95 ± 0.23 and 0.95
- Hyperplasia Scores 0 (number of dogs) ([3]; 150 MG/KG/day, 9 dogs, 0 = normal tissue): 7
- Hyperplasia Scores 1 (number of dogs) ([3]; 150 MG/KG/day, 9 dogs, 1 = minimal): 2
- Incidence of Normal Lung ([3]; dogs, 150 MG/KG/day oral, control 0/9): 7/9
- recurrence of asbestos-induced fibrosis ([4]; after 5MP2P had been discontinued for two months): did not recur
- lung cell-imbedded asbestos fibers ([4]; electron microscope, confirmed by ashing of lung specimens and determining the asbestos content): had been removed
- Pulmonary Fibrosis Scores Lung Density, Average ([4]; hamsters, Group III, 500 MG/KG/day in the diet for two months, asbestos without 5MP2P 2.53+0.23, no asbestos 1.00+0.05): 1.17+0.10**
- Pulmonary Fibrosis Scores Electron Microscope, Average ([4]; hamsters, Group III, 500 MG/KG/day in the diet for two months, asbestos without 5MP2P 2.75+0.25, no asbestos 0.25+0.25): 0.25+0.25**
- Pulmonary Fibrosis Scores Light Microscope, Average ([4]; hamsters, Group III, 500 MG/KG/day in the diet for two months, asbestos without 5MP2P 2.75+0.25, no asbestos 0.50+0.25): 1.00+0.41**
- Pulmonary Fibrosis Scores Electron Microscope (individual animal) [4, 6]: 0 (3×) and 1
- Pulmonary Fibrosis Scores Light Microscope (individual animal) [4, 6]: 0 and 2 and 1 (2×)
- Pulmonary Fibrosis Scores Lung Density (individual animal) [4, 6]: 0.98 and 1.04 and 1.26 and 1.41
- pulmonary fibrosis induced with crysotile asbestos ([4]; hamsters, oral 5MP2P): removed
